According to US12433952B2, “Antibody-drug conjugates targeting folate receptor alpha and methods of use” (ZYMEWORKS BC INC., priority 2022, dated 2025):
Read-outs that look alike come from different tables or passages of the source.

Assays:
Test in all cases: In vitro cytotoxicity of camptothecin analogues (CellTiter-Glo)
Format in all cases: cell-based
SK-BR-3 (breast cancer) = details: Homo sapiens, SK-BR-3, 96 h, read-out: pIC50 SKBR-3 (converted)
Procedure: (§1) Cytotoxicity of the camptothecin analogues was assessed in vitro as follows.
(§2) In vitro potency was assessed on multiple cancer cell lines: SK-BR-3 (breast cancer), SKOV-3 (ovarian cancer), Calu-3 (lung cancer), ZR-75-1 (breast cancer) and MDA-MB-468 (breast cancer). Serial dilutions of camptothecin analogues were prepared in RPMI 1640+10% FBS, and 20 μL of each dilution was added to 384-well plates. Cells cultured in log-phase growth were detached by brief incubation in 0.05% Trypsin and resuspended in respective culturing media at 20,000 cells/mL (with the exception of ZR-75 cells, which were resuspended at 10,000 cells/mL). 50 μL of cell suspension was then added to the plates containing test articles. Cells were incubated with test articles for 4 d at 37° C. (with the exception of ZR-75 cells, which were incubated for 5 d). Growth inhibition was assessed by CellTiter-Glo® (Promega Corporation, Madison, WI) and luminescence was measured on a plate reader. IC50 values were determined by GraphPad Prism (GraphPad Software, San Diego CA).

[1] = system: MDA-MB-468 (breast cancer); details: Homo sapiens, MDA-MB-468, 96 h, read-out: pIC50 MDA-MB-468 (converted)
Procedure: as §1, §2

SKOV-3 (ovarian cancer) = details: Homo sapiens, SK-OV-3, 96 h, read-out: pIC50 SKOV-3 (converted)
Procedure: as §1, §2

ZR-75-1 (breast cancer) = details: Homo sapiens, ZR-75-1, 120 h, read-out: pIC50 ZR-75 (converted)
Procedure: as §1, §2

Calu-3 (lung cancer) = details: Homo sapiens, Calu-3, 96 h, read-out: pIC50 Calu-3 (converted)
Procedure: as §1, §2

Row | Compound | IC50 (SK-BR-3 (breast cancer)) | IC50 [1] | IC50 (SKOV-3 (ovarian cancer)) | IC50 (ZR-75-1 (breast cancer)) | IC50 (Calu-3 (lung cancer)) | IC50 (SK-BR-3 (breast cancer); 4 d incubation) | IC50 ([1]; 4 d incubation) | IC50 (SKOV-3 (ovarian cancer); 4 d incubation) | IC50 (ZR-75-1 (breast cancer); 5 d incubation) | IC50 (Calu-3 (lung cancer); 4 d incubation)
1 | CC[C@@]1(O)C(=O)OCc2c1cc1n(c2=O)Cc2c-1nc1cc(F)c(C)cc1c2CNS(=O)(=O)c1ccccc1 [Compound 125, (S)—N-((4-ethyl-8-fluoro-4-hydroxy-9-methyl-3,14-dioxo-3,4,12,14-tetrahydro-1H-pyrano[3′,4′:6,7]indolizino[1,2-b]quinolin-11-yl)methyl)benzenesulfonamide] | 1.32 nM | 3.8 nM | 7.08 nM | 1.32 nM | 2.82 nM | – | – | – | – | –
2 | CC[C@@]1(O)C(=O)OCc2c1cc1n(c2=O)Cc2c-1nc1cc(F)c(OC)cc1c2CNS(=O)(=O)c1ccccc1 [Compound 126, (S)—N-((4-ethyl-8-fluoro-4-hydroxy-9-methoxy-3,14-dioxo-3,4,12,14-tetrahydro-1H-pyrano[3′,4′:6,7]indolizino[1,2-b]quinolin-11-yl)methyl)benzenesulfonamide] | – | – | – | – | – | 1.1 nM | 1.95 nM | 6.31 nM | 0.724 nM | 2.95 nM
3 | CC[C@@]1(O)C(=O)OCc2c1cc1n(c2=O)Cc2c-1nc1cc(F)c(C)cc1c2CNS(=O)(=O)c1ccc(N)cc1 [Compound 127, (S)-4-amino-N-((4-ethyl-8-fluoro-4-hydroxy-9-methyl-3,14-dioxo-3,4,12,14-tetrahydro-1H-pyrano[3′,4′:6,7]indolizino[1,2-b]quinolin-11-yl)methyl)benzenesulfonamide] | 3.31 nM | 3.8 nM | 14.5 nM | 5.25 nM | 9.33 nM | – | – | – | – | –
4 | CC[C@@]1(O)C(=O)OCc2c1cc1n(c2=O)Cc2c-1nc1cc(F)c(C)cc1c2CNS(=O)(=O)CCO [Compound 129, (S)—N-((4-ethyl-8-fluoro-4-hydroxy-9-methyl-3,14-dioxo-3,4,12,14-tetrahydro-1H-pyrano[3′,4′:6,7]indolizino[1,2-b]quinolin-11-yl)methyl)-2-hydroxyethane-1-sulfonamide] | – | – | – | – | – | 3.09 nM | 3.98 nM | 20.4 nM | 2.63 nM | 5.25 nM
5 | CC[C@@]1(O)C(=O)OCc2c1cc1n(c2=O)Cc2c-1nc1cc(F)c(C)cc1c2CNC(=O)NC [Compound 132, (S)-1-((4-ethyl-8-fluoro-4-hydroxy-9-methyl-3,14-dioxo-3,4,12,14-tetrahydro-1H-pyrano[3′,4′:6,7]indolizino[1,2-b]quinolin-11-yl)methyl)-3-methylurea] | – | – | – | – | – | 22.9 nM | 26.9 nM | 105 nM | 15.5 nM | 51.3 nM
6 | CC[C@@]1(O)C(=O)OCc2c1cc1n(c2=O)Cc2c-1nc1cc(F)c(OC)cc1c2CNC(=O)NC [Compound 133, (S)-1-((4-ethyl-8-fluoro-4-hydroxy-9-methoxy-3,14-dioxo-3,4,12,14-tetrahydro-1H-pyrano[3′,4′:6,7]indolizino[1,2-b]quinolin-11-yl)methyl)-3-methylurea] | – | – | – | – | – | 6.76 nM | 10.7 nM | 74.1 nM | 9.77 nM | 12 nM
7 | CC[C@@]1(O)C(=O)OCc2c1cc1n(c2=O)Cc2c-1nc1cc(F)c(C)cc1c2CNC(=O)NCc1ccc(N)cc1 [Compound 134, (S)-1-(4-aminobenzyl)-3-((4-ethyl-8-fluoro-4-hydroxy-9-methyl-3,14-dioxo-3,4,12,14-tetrahydro-1H-pyrano[3′,4′:6,7]indolizino[1,2-b]quinolin-11-yl)methyl)urea] | – | – | – | – | – | 9.55 nM | 11.5 nM | 77.6 nM | 12 nM | 24.5 nM
8 | CC[C@@]1(O)C(=O)OCc2c1cc1n(c2=O)Cc2c-1nc1cc(F)c(C)cc1c2CNC(=O)NCCO [Compound 136, (S)-1-((4-ethyl-8-fluoro-4-hydroxy-9-methyl-3,14-dioxo-3,4,12,14-tetrahydro-1H-pyrano[3′,4′:6,7]indolizino[1,2-b]quinolin-11-yl)methyl)-3-(2-hydroxyethyl)urea] | – | – | – | – | – | 3.98 nM | 6.31 nM | 51.3 nM | 5.01 nM | 26.3 nM
9 | CC[C@@]1(O)C(=O)OCc2c1cc1n(c2=O)Cc2c-1nc1cc(F)c(C)cc1c2CNC(=O)OC [Compound 138, Methyl-(S)-((4-ethyl-8-fluoro-4-hydroxy-9-methyl-3,14-dioxo-3,4,12,14-tetrahydro-1H-pyrano[3′,4′:6,7]indolizino[1,2-b]quinolin-11-yl)methyl)carbamate] | – | – | – | – | – | 0.479 nM | 0.871 nM | 0.617 nM | 0.195 nM | 0.389 nM
10 | CC[C@@]1(O)C(=O)OCc2c1cc1n(c2=O)Cc2c-1nc1cc(F)c(C)cc1c2CNC(=O)OCCO [Compound 139, 2-hydroxyethyl (S)-((4-ethyl-8-fluoro-4-hydroxy-9-methyl-3,14-dioxo-3,4,12,14-tetrahydro-1H-pyrano[3′,4′:6,7]indolizino[1,2-b]quinolin-11-yl)methyl)carbamate] | – | – | – | – | – | 1.2 nM | 1.51 nM | 5.01 nM | 1.07 nM | 7.08 nM
11 | CC[C@@]1(O)C(=O)OCc2c1cc1n(c2=O)Cc2cc3cc(N)c(F)cc3nc2-1 [Compound 140, (S)-9-amino-4-ethyl-8-fluoro-4-hydroxy-1,12-dihydro-14H-pyrano[3′,4′:6,7]indolizino [1,2-b]quinoline-3,14(4H)-dione] | – | – | – | – | – | 0.316 nM | 0.708 nM | 0.457 nM | 0.331 nM | 0.309 nM
12 | CC[C@@]1(O)C(=O)OCc2c1cc1n(c2=O)Cc2c-1nc1cc(F)c(N)cc1c2CO [Compound 141, (S)-9-amino-4-ethyl-8-fluoro-4-hydroxy-11-(hydroxymethyl)-1,12-dihydro-14H-pyrano[3′,4′:6,7]indolizino[1,2-b]quinoline-3,14(4H)-dione] | – | – | – | – | – | 0.347 nM | 1.45 nM | 2.82 nM | 0.309 nM | 1.02 nM
13 | CC[C@@]1(O)C(=O)OCc2c1cc1n(c2=O)Cc2c-1nc1cc(F)c(N)cc1c2CN1CCOCC1 [Compound 142, (S)-9-amino-4-ethyl-8-fluoro-4-hydroxy-11-(morpholinomethyl)-1,12-dihydro-14H-pyrano[3′,4′:6,7]indolizino[1,2-b]quinoline-3,14(4H)-dione] | – | – | – | – | – | 0.631 nM | 1.29 nM | 1.29 nM | 0.759 nM | 1.29 nM
14 | CC[C@@]1(O)C(=O)OCc2c1cc1n(c2=O)Cc2c-1nc1cc(F)c(N)cc1c2CNC(=O)OC [Compound 143, Methyl (S)-((9-amino-4-ethyl-8-fluoro-4-hydroxy-3,14-dioxo-3,4,12,14-tetrahydro-1H-pyrano[3′,4′:6,7]indolizino[1,2-b]quinolin-11-yl)methyl)carbamate] | – | – | – | – | – | 0.389 nM | 0.708 nM | 2.82 nM | 0.851 nM | 0.708 nM
15 | CC[C@@]1(O)C(=O)OCc2c1cc1n(c2=O)Cc2c-1nc1cc(F)c(N)cc1c2CNC(=O)NC [Compound 144, (S)-1-((9-amino-4-ethyl-8-fluoro-4-hydroxy-3,14-dioxo-3,4,12,14-tetrahydro-1H-pyrano[3′,4′:6,7]indolizino[1,2-b]quinolin-11-yl)methyl)-3-methylurea] | – | – | – | – | – | 0.794 nM | 22.4 nM | 69.2 nM | 13.2 nM | 22.4 nM
16 | CC[C@@]1(O)C(=O)OCc2c1cc1n(c2=O)Cc2c-1nc1cc(F)c(N)cc1c2CN [Compound 145, (S)-9-amino-11-(aminomethyl)-4-ethyl-8-fluoro-4-hydroxy-1,12-dihydro-14H-pyrano[3′,4′:6,7]indolizino[1,2-b]quinoline-3,14(4H)-dione] | – | – | – | – | – | 0.355 nM | 0.269 nM | 0.933 nM | 0.38 nM | 0.269 nM
17 | CC[C@@]1(O)C(=O)OCc2c1cc1n(c2=O)Cc2c-1nc1cc(F)c(N)cc1c2CNS(C)(=O)=O [Compound 146, (S)—N-((9-amino-4-ethyl-8-fluoro-4-hydroxy-3,14-dioxo-3,4,12,14-tetrahydro-1H-pyrano[3′,4′:6,7]indolizino[1,2-b]quinolin-11-yl)methyl)methanesulfonamide] | – | – | – | – | – | 1.74 nM | 4.37 nM | 11.2 nM | 6.03 nM | 4.37 nM
18 | CC[C@@]1(O)C(=O)OCc2c1cc1n(c2=O)Cc2c-1nc1cc(F)c(N)cc1c2CN1CCN(C)CC1 [Compound 149, (S)-9-amino-4-ethyl-8-fluoro-4-hydroxy-11-((4-methylpiperazin-1-yl)methyl)-1,12-dihydro-14H-pyrano[3′,4′:6,7]indolizino[1,2-b]quinoline-3,14(4H)-dione] | – | – | – | – | – | 3.16 nM | 6.31 nM | 10 nM | 1.82 nM | 6.31 nM
